Structures are written as SMILES.

A short description of data set [1]: Metabolic stability evaluation, human liver microsome experiment. Conditions: human liver microsomes, pH 7.4, 1 μM compound, 0.5 mg/mL protein; for microsomal CLint at 1 μM: read-out: CL human liver microsome experiment; for half-life at 1 μM: read-out: T½ human liver microsome experiment. The data set is classed as in vitro ADME. The protocol: (§1) Microsome experiment: human liver microsome: 0.5 mg/mL, Xenotech; rat liver microsome: 0.5 mg/mL, Xenotech; coenzyme (NADPH/NADH): 1 mM, Sigma Life Science; magnesium chloride: 5 mM, 100 mM phosphate buffer (pH 7.4).
(§2) Preparation of stock solution: a certain amount of the example compound powder and control compound powder were accurately weighed, and respectively dissolved to 5 mM with DMSO.
(§3) Preparation of phosphate buffer (100 mM, pH7.4): 150 mL of 0.5M potassium dihydrogen phosphate and 700 mL of 0.5M dipotassium hydrogen phosphate prepared beforehand were mixed, with pH of the mixture adjusted to 7.4 with 0.5M dipotassium hydrogen phosphate solution. Before use, the mixture was diluted by 5 folds with ultrapure water and magnesium chloride was added to obtain the phosphate buffer (100 mM), which contains 100 mM potassium phosphate, 3.3 mM magnesium chloride, and has pH 7.4.
(§4) NADPH regeneration system solution (containing 6.5 mM NADP, 16.5 mM G-6-P, 3 U/mL G-6-P D, 3.3 mM magnesium chloride) was prepared, and placed on wet ice before use.
(§5) Preparation of stop solution: a solution of 50 ng/mL propranolol hydrochloride and 200 ng/mL tolbutamide (internal standard) in acetonitrile. 25057.5 μL of phosphate buffer (pH 7.4) was taken into a 50 mL centrifuge tube, added with 812.5 μL of human liver microsome, and mixed well to obtain a liver microsome diluent with a protein concentration of 0.625 mg/mL. 25057.5 μL of phosphate buffer (pH 7.4) was taken into a 50 mL centrifuge tube, added with 812.5 μL of SD rat liver microsome, and mixed well to obtain a liver microsome diluent with a protein concentration of 0.625 mg/mL.
(§6) Incubation of the samples: the stock solutions of the corresponding compounds were respectively diluted to 0.25 mM with an aqueous solution containing 70% acetonitrile to obtain working solutions for later use. 398 μL of human liver microsome and rat liver microsome diluents were respectively taken and added to a 96-well incubation plate (N=2), added with 2 μL of 0.25 mM working solution respectively, and mixed well.
(§7) Determination of metabolic stability: 300 μL of pre-cooled stop solution was added to each well of a 96-well deep-well plate, and the plate was placed on ice as a stop plate. The 96-well incubation plate and the NADPH regeneration system were placed in a 37° C. water bath, shaken at 100 rpm, and pre-incubated for 5 minutes. 80 μL of incubation solution was taken out of each well of the incubation plate and added to the stop plate, mixed well, and supplemented with 20 μL of NADPH regeneration system solution to obtain the 0 min sample. Then 80 μL of NADPH regeneration system solution was added to each well of the incubation plate to initiate the reaction and start timing. The reaction concentration of the corresponding compound was 1 μM, and the protein concentration was 0.5 mg/mL. At 10, 30, and 90 minutes of reaction, 100 μL of the reaction solution was taken and added to the stop plate, and vortexed for 3 minutes to stop the reaction. The stop plate was centrifuged at 5000×g for 10 min at 4° C. 100 μL of supernatant was taken to a 96-well plate pre-added with 100 μL of distilled water, mixed well, and subjected to sample analysis by LC-MS/MS.
(§8) Data analysis: the peak areas of the corresponding compound and internal standard were detected through the LC-MS/MS system, and the ratio of the peak area of the compound to the internal standard was calculated.

A short description of data set [2]: Metabolic stability evaluation, rat liver microsome experiment. The following applies: SD, rat liver microsomes, pH 7.4, 1 μM compound, 0.5 mg/mL protein; for microsomal CLint at 1 μM: read-out: CL rat liver microsome experiment; for half-life at 1 μM: read-out: T½ rat liver microsome experiment. The data set is classed as in vitro ADME. How it is done: as §1, §2, §3, §4, §5, §6, §7, §8

The target of data set [3] is Ba/F3 Kit D816V (Homo sapiens, UniProt P10721, D816V, cells depend on it). Conditions: read-out: Cell IC50 (nM) BaF3/Kit(D816V); 72 hours, CTG.

Regarding `[2H]C([2H])([2H])n1cc(-c2cc3c(N4CCN(c5ncc([C@@](N)(c6ccc(F)cc6)C([2H])([2H])[2H])cn5)CC4)ncnn3c2)cn1` [Compound T-3-S, (S)-1-(4-fluorophenyl)-1-(2-(4-(6-(1-(methyl-d3)-1H-pyrazol-4-yl)pyrrolo[2,1-f][1,2,4]triazin-4-yl)piperazin-1-yl)pyrimidin-5-yl)ethan-2,2,2-d3-1-amine], the microsomal CLint at 1 μM in data set [1] was found to be 13 µL/min/mg; in data set [2] it was 15.6 µL/min/mg. The half-life at 1 μM was determined as 107 min in data set [1] and 89.1 min in data set [2]. In data set [3], the GI50 lay within 1 to 50 nM.

Take `Cn1cc(-c2cc3c(N4CCN(c5ncc([C@@](C)(N)c6ccc(F)cc6)cn5)CC4)ncnn3c2)cn1` [Avapritinib, (S)-1-(4-fluorophenyl)-1-(2-(4-(6-(1-methyl-1H-pyrazol-4-yl)pyrrolo[2,1-f][1,2,4]triazin-4-yl)piperazin-1-yl)pyrimidin-5-yl)ethylamine, reference compound]: in data set [1], the microsomal CLint at 1 μM was 15.8 µL/min/mg and the half-life at 1 μM stood at 87.6 min. Moreover, in data set [2], the microsomal CLint at 1 μM was determined as 24.6 µL/min/mg and the half-life at 1 μM was determined as 56.3 min. The GI50 in data set [3] lay in the range of 1 to 50 nM.

For `[2H]C([2H])([2H])n1cc(-c2cc3c(N4C([2H])([2H])C([2H])([2H])N(c5ncc([C@@](N)(c6ccc(F)cc6)C([2H])([2H])[2H])cn5)C([2H])([2H])C4([2H])[2H])ncnn3c2)cn1` [Compound T-7-S, (S)-1-(4-fluorophenyl)-1-(2-(4-(6-(1-(methyl-d3)-1H-pyrazol-4-yl)pyrrolo[2,1-f][1,2,4]triazin-4-yl)piperazin-1-yl-2,2,3,3,5,5,6,6-d8)pyrimidin-5-yl)ethan-2,2,2-d3-1-amine], the GI50 in data set [3] is 1 to 50 nM.

As for `[2H]C1([2H])N(c2ncc([C@@](N)(c3ccc(F)cc3)C([2H])([2H])[2H])cn2)C([2H])([2H])C([2H])([2H])N(c2ncnn3cc(-c4cnn(C)c4)cc23)C1([2H])[2H]` [Compound T-6-S, (S)-1-(4-fluorophenyl)-1-(2-(4-(6-(1-methyl-1H-pyrazol-4-yl)pyrrolo[2,1-f][1,2,4]triazin-4-yl)piperazin-1-yl-2,2,3,3,5,5,6,6-d8)pyrimidin-5-yl)ethan-2,2,2-d3-1-amine], in data set [1], the microsomal CLint at 1 μM was 13.1 µL/min/mg and the half-life at 1 μM came out at 105 min. Moreover, in data set [2], the microsomal CLint at 1 μM worked out at 15.5 µL/min/mg and the half-life at 1 μM came to 89.4 min. Moreover, in data set [3], the GI50 was in the range of 1 to 50 nM.

Take `[2H]C1([2H])N(c2ncc([C@](C)(N)c3ccc(F)cc3)cn2)C([2H])([2H])C([2H])([2H])N(c2ncnn3cc(-c4cnn(C)c4)cc23)C1([2H])[2H]` [Compound T-4-R, (R)-1-(4-fluorophenyl)-1-(2-(4-(6-(1-methyl-1H-pyrazol-4-yl)pyrrolo[2,1-f][1,2,4]triazin-4-yl)piperazin-1-yl-2,2,3,3,5,5,6,6-d8)pyrimidin-5-yl)ethylamine]: the microsomal CLint at 1 μM in data set [1] stood at 26 µL/min/mg; in data set [2], 27 µL/min/mg. Besides, the half-life at 1 μM came out at 53.3 min in data set [1] and 51.4 min in data set [2].

Regarding `[2H]C1([2H])N(c2ncc([C@@](C)(N)c3ccc(F)cc3)cn2)C([2H])([2H])C([2H])([2H])N(c2ncnn3cc(-c4cnn(C)c4)cc23)C1([2H])[2H]` [Compound T-4-S, (S)-1-(4-fluorophenyl)-1-(2-(4-(6-(1-methyl-1H-pyrazol-4-yl)pyrrolo[2,1-f][1,2,4]triazin-4-yl)piperazin-1-yl-2,2,3,3,5,5,6,6-d8)pyrimidin-5-yl)ethylamine], in data set [1], the microsomal CLint at 1 μM came out at 15.3 µL/min/mg and the half-life at 1 μM came to 90.5 min. In data set [2], the microsomal CLint at 1 μM is 17.1 µL/min/mg and the half-life at 1 μM was 81.1 min. Further, the GI50 in data set [3] is 1 to 50 nM.

`Cn1cc(-c2cc3c(N4CCN(c5ncc([C@](C)(N)c6ccc(F)cc6)cn5)CC4)ncnn3c2)cn1` [Compound A, (R)-1-(4-fluorophenyl)-1-(2-(4-(6-(1-methyl-1H-pyrazol-4-yl)pyrrolo[2,1-f][1,2,4]triazin-4-yl)piperazin-1-yl)pyrimidin-5-yl)ethan-1-amine, reference compound]: the microsomal CLint at 1 μM in data set [1] was determined as 28.8 µL/min/mg; in data set [2], 41.5 µL/min/mg. Moreover, the half-life at 1 μM in data set [1] was found to be 48.1 min; in data set [2], 33.4 min.

Consider `[2H]C1([2H])N(c2ncc([C@](N)(c3ccc(F)cc3)C([2H])([2H])[2H])cn2)C([2H])([2H])C([2H])([2H])N(c2ncnn3cc(-c4cnn(C)c4)cc23)C1([2H])[2H]` [Compound T-6-R, (R)-1-(4-fluorophenyl)-1-(2-(4-(6-(1-methyl-1H-pyrazol-4-yl)pyrrolo[2,1-f][1,2,4]triazin-4-yl)piperazin-1-yl-2,2,3,3,5,5,6,6-d8)pyrimidin-5-yl)ethan-2,2,2-d3-1-amine], for which, in data set [1], the microsomal CLint at 1 μM worked out at 24.2 µL/min/mg and the half-life at 1 μM amounted to 57.3 min. In data set [2], the microsomal CLint at 1 μM came to 38.6 µL/min/mg and the half-life at 1 μM worked out at 35.9 min.

`[2H]C([2H])([2H])n1cc(-c2cc3c(N4CCN(c5ncc([C@@](C)(N)c6ccc(F)cc6)cn5)CC4)ncnn3c2)cn1` [Compound T-1-S, (S)-1-(4-fluorophenyl)-1-(2-(4-(6-(1-(methyl-d3)-1H-pyrazol-4-yl)pyrrolo[2,1-f][1,2,4]triazin-4-yl)piperazin-1-yl)pyrimidin-5-yl)ethylamine]: in data set [1], the microsomal CLint at 1 μM is 15.6 µL/min/mg and the half-life at 1 μM was determined as 88.6 min. Moreover, in data set [3], the GI50 lay within 1 to 50 nM.

For the compound `[2H]C([2H])([2H])n1cc(-c2cc3c(N4CCN(c5ncc([C@](N)(c6ccc(F)cc6)C([2H])([2H])[2H])cn5)CC4)ncnn3c2)cn1` [Compound T-3-R, (R)-1-(4-fluorophenyl)-1-(2-(4-(6-(1-(methyl-d3)-1H-pyrazol-4-yl)pyrrolo[2,1-f][1,2,4]triazin-4-yl)piperazin-1-yl)pyrimidin-5-yl)ethan-2,2,2-d3-1-amine], the microsomal CLint at 1 μM worked out at 27 µL/min/mg in data set [1] and 37.2 µL/min/mg in data set [2]. Moreover, the figures for the half-life at 1 μM in data set [1] and in data set [2] were 51.3 min and 37.3 min, respectively.

`[2H]C([2H])([2H])n1cc(-c2cc3c(N4C([2H])([2H])C([2H])([2H])N(c5ncc([C@@](C)(N)c6ccc(F)cc6)cn5)C([2H])([2H])C4([2H])[2H])ncnn3c2)cn1` [Compound T-5-S, (S)-1-(4-fluorophenyl)-1-(2-(4-(6-(1-(methyl-d3)-1H-pyrazol-4-yl)pyrrolo[2,1-f][1,2,4]triazin-4-yl)piperazin-1-yl-2,2,3,3,5,5,6,6-d8)pyrimidin-5-yl)ethylamine]: the GI50 in data set [3] was in the range of 1 to 50 nM.

For the compound `[2H]C([2H])([2H])[C@](N)(c1ccc(F)cc1)c1cnc(N2CCN(c3ncnn4cc(-c5cnn(C)c5)cc34)CC2)nc1` [Compound T-2-S, (S)-1-(4-fluorophenyl)-1-(2-(4-(6-(1-methyl-1H-pyrazol-4-yl)pyrrolo[2,1-f][1,2,4]triazin-4-yl)piperazin-1-yl)pyrimidin-5-yl)ethan-2,2,2-d3-1-amine], in data set [3], the GI50 fell in the range of 1 to 50 nM.

These data come from patent publication US11459334B2, “Substituted pyrrolo[2,1-f][1,2,4]triazines as KIT and/or PDGFR-α inhibitors” (SHENZHEN TARGETRX, INC., priority 2018, dated 2022).
